Laboratory results published in patent publication US20090060875A1, “HCV Vaccines for Chronic HCV Patients” (INTERCELL AG, priority 2004, published 2009).

Experiments:
[1] = standard therapy, background; cited from earlier work
[2] = test system: interferon gamma secreting T-cells (CD4+ Helper- and CD8+ cytotoxic T-cells); assay: Interferon-gamma ELIspot assay in phase 2 study of chronic HCV patients; type: in vivo, human; settings: chronic HCV patients (FIG. 2)
Excerpt: (§1) In the present clinical study, each group consisted of 12 subjects, positive for HLA-A2. Subjects received 6 vaccinations in monthly intervals (at visits 3 to 8). Blood for immunological analyses was drawn prior vaccination and at visits 6 to 8, one month after last vaccination (visit 9), 3 months after last vaccination (visit 10) and 6 months after last vaccination (visit 11). For immunological monitoring of clinical trials, state-of-the-art T cell assays to determine immunological endpoints under GLP/GCP compliance were applied: Interferon-gamma ELIspot Assay, T cell Proliferation Assay, HLA-tetramer/FACS assay. These assays allow reliable measurements of epitope-specific T cell responses induced by the therapeutic HCV vaccine IC41. The vaccine-induced T cell immune responses serve as surrogate parameters of efficacy (Keilholz et al. 2002).
As secondary endpoints T-cell immunogenicity was determined by interferon gamma ELIspot. ELIspot allows quantification of peptide-specific, functional (i.e. cytokine-secreting) T cells in biological samples like human blood. The basis of the assay is that, T cells upon stimulation with a peptide specifically recognized by the T cell receptor react by secretion of cytokines like IFN-γ. […]
The filter-wells of this plate are coated with a Mab specific for IFN-γ. […] Spots can be counted using automated plate readers. […]

CD4+ Helper-T-cells = assay: T-cell proliferation assay ([3H]-thymidine) in phase 2 study of chronic HCV patients; type: in vivo, human; settings: vaccinations at month 0-5, stimulation indices, median of 12 patients per group (FIG. 1), listed as poly-L-Arginine alone
Excerpt: as §1
As primary endpoint T-cell immunogenicity was determined by a T-cell proliferation assay. […] Proliferation of cells can be measured by a variety of means; among the most sensitive approaches ranks incorporation of radioactively labeled thymidine into DNA synthesized prior cell division. […] Cells are then harvested onto a filter plate: medium containing free radioactivity is washed away, whereas DNA sticks to the filter. Incorporated radioactivity can be quantified by means of a beta-scintillation counter determining counts-per-minute (cpm). […]

## NC(=O)c1ncn([C@@H]2O[C@H](CO)[C@@H](O)[C@H]2O)n1 [Ribavirin, ribavirin]
[1]
  Side effects: teratogenic, mutagenic and carcinogenic potency

## Poly-L-Arginine
[2]
  Induction of interferon gamma secreting T-cells (type I T-cell response): cannot induce any response
CD4+ Helper-T-cells
  CD4+ Helper-T-cell proliferation (induction of significant proliferative response): not and neither peptides alone nor poly-L-Arginine alone have this ability
